The source of these data is patent US8293769B2, “CSF-1R inhibitors, compositions, and methods of use” (Novartis AG, priority 2008, dated 2012).

Test [1] has as its target T1, cytoplasmic domain of the human CSF-1R (Homo sapiens, UniProt P07333).
T1 construct: Recombinant protein corresponding to the cytoplasmic domain of the human CSF-1R; purchased Invitrogen Corporation, Carlsbad, Calif; PV3249
T1 sequence (P07333 539-972 limits assumed): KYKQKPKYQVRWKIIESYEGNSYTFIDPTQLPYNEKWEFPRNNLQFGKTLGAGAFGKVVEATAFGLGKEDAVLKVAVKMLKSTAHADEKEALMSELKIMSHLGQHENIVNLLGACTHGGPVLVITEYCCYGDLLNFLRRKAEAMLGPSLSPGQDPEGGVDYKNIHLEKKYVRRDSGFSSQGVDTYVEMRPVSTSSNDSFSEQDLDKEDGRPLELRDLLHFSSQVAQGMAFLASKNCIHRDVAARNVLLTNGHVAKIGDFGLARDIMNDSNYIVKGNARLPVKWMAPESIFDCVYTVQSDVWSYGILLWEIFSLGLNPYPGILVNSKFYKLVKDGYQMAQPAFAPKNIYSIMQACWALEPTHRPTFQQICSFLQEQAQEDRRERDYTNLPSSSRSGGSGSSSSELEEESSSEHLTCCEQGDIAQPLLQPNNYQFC
The test can be described thus: In vitro kinase assay for CSF-1R (AlphaScreen). Format: biochemical. As to conditions: tested at about 1 μM; read-out: CSF1RK 1 percent inhibition. The procedure, abridged:
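Recombinant CSF-1R cytoplasmic domain (4 nM) phosphorylated biotinylated peptide (0.05 μM) at 1.0 μM ATP in HEPES with Mg2+/Mn2+, 2 h at room temperature, compounds from 25 μM in 3-fold steps. AlphaScreen anti-phosphotyrosine PT66 detection; IC50 by non-linear regression.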
In general terms: In Alpha technology, singlet oxygen from a donor bead excites a nearby acceptor bead.

The target in another test is T2, cKIT (Homo sapiens, UniProt P10721).
T2 construct: The kinase domain of cKIT was assayed in 50 mM Hepes; purchased Upstate 14-559
T2 sequence (P10721 589-937 limits assumed): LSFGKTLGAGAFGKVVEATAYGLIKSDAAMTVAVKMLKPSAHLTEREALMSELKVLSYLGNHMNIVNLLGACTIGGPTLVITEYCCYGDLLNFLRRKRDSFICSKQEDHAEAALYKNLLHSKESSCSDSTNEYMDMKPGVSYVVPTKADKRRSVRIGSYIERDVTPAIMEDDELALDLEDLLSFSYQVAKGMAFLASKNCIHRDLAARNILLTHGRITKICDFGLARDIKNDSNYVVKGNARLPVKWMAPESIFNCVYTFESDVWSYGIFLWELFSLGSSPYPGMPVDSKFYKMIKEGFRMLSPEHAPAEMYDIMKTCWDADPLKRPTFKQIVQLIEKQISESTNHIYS
The test can be described thus: cKIT kinase in vitro biochemical assay (alphascreen). The note with it: tested at about 1 μM; read-out: CKIT percent inhibition.

The target of another test is T3, PDGFRb (Homo sapiens, UniProt P09619).
T3 construct: The kinase domain of PDGFRβ was assayed in 50 mM Hepes; purchased Invitrogen P3082
T3 sequence (P09619 600-962 limits assumed): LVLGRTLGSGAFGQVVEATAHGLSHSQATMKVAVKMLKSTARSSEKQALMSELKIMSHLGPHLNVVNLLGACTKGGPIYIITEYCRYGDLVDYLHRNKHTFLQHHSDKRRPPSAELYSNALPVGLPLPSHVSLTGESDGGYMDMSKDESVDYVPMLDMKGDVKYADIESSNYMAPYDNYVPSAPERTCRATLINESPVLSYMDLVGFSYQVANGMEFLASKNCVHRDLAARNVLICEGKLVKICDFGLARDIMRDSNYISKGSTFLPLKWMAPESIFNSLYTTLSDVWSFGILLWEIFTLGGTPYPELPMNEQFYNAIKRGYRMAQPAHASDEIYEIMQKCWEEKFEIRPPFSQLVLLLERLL
The test can be described thus: PDGFRb kinase in vitro biochemical assay (alphascreen). The note with it: tested at about 1 μM; read-out: PDGF RK BETA percent inhibition.

In test [2] the test system is MNFS60 (murine AML cells). Kind of test: Cell viability assay in MCSF dependent MNFS60 cells (Cell Titer Glo). The class given is cell-based. The note with it: Mus musculus; tested at about 1 μM; MCSF 10 ng/mL, 72 hrs; read-out: CPEC50 MNFS60MCSF percent inhibition. The procedure, abridged: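 MNFS60 cells, 5,000 per well in RPMI-1640/10% FBS, grown with 10 ng/mL MCSF and 3-fold compound dilutions for 72 h at 37 °C. Viable cells measured by CellTiter-Glo luminescence, triplicates; EC50 fitted, with MCSF-free wells as 100% inhibition.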

Test [3] addresses T4, full-length human CSF-1R receptor (Homo sapiens, UniProt P07333).
T4 construct: transfected with the full-length human CSF-1R receptor cloned in house; expressed in transfected cells; host or cells: HEK293H (Invitrogen Cat. #11631017)
Kind of test: In vitro inhibition of CSF-1R receptor tyrosine phosphorylation in transfected HEK293H cells. The note with it: HEK293-H, tested at about 1 μM, 50 ng/mL MCSF, read-out: PCSF1R percent inhibition. Format: cell-based. The protocol: To test the inhibition of CSF-1R receptor tyrosine phosphorylation, HEK293H purchased from Invitrogen Cat. #11631017 cells transfected with the full-length human CSF-1R receptor cloned in house into mammalian episomal transfection vector were incubated for 1 h with serial dilutions of compounds starting at 10 μM with 3 fold dilutions and then stimulated for 8 min with 50 ng/mL MCSF. After the supernatant was removed, the cells were lysed on ice with lysis buffer (150 mM NaCl, 20 mM Tris, pH 7.5, 1 mM EDTA, 1 mM EGTA, 1% Triton X-100 and NaF, protease and phosphatase inhibitors) and then shaken for 15-20 min at 4° C. The lysate was then transferred to total CSF-1R antibody coated 96-well plates that had already been blocked with 3% Blocker A from Mesoscale discovery (MSD) for 2 hours and washed afterwards. Lysates were incubated overnight at 4° C. and the plates were then washed 4× with MSD Tris Wash Buffer. The SULFO-TAG anti-pTyr antibody from MSD was diluted to 20 nM final in 1% Blocker A (MSD) solution and added to the washed plates and incubated for 1.5-2 h before addition of read buffer (MSD). The plates were read on the Sector 6000 instrument (MSD). Raw data was imported in Abase and EC50s calculated with XL-fit data analysis software.

Molecules are shown by their SMILES.

T4 sequence (P07333 20-972): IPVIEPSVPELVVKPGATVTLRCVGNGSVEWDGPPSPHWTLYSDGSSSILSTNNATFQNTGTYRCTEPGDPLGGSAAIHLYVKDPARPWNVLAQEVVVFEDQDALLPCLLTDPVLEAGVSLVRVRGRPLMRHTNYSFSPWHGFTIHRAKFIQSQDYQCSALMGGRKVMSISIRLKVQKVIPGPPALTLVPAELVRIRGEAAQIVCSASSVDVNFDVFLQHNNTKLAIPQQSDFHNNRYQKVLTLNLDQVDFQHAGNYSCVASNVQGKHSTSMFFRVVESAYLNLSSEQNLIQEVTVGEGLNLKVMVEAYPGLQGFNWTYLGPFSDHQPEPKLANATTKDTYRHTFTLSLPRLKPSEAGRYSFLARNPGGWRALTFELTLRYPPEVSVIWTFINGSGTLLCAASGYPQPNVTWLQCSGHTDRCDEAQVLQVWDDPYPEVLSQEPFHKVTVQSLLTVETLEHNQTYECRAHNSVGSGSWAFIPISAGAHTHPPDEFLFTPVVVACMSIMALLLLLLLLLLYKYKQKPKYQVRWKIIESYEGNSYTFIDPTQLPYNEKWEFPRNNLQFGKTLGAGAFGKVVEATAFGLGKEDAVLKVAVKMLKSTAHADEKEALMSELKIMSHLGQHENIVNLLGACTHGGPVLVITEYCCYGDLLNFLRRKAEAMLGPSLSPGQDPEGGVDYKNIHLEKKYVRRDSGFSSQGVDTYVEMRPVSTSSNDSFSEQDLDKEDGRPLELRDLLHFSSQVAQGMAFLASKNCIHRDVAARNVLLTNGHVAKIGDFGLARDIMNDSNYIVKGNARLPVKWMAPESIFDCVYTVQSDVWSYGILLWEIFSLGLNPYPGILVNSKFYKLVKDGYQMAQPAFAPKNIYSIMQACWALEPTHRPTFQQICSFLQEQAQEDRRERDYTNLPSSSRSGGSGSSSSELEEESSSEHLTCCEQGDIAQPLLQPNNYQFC

On to `O[C@@H]1CCCC[C@H]1Nc1nc2ccc(Oc3cncc(-c4cn[nH]c4)n3)cc2s1` [Compound 92, (1R,2R)-2-(6-(6-(1H-pyrazol-4-yl)pyrazin-2-yloxy)benzo [d]thiazol-2-ylamino) cyclohexanol], for which the inhibition at 1 µM is 100% in test [1]; 27% at cKIT; 23% at PDGFRb; 70% in test [2]; 93% in test [3].
With `Cn1cc(-c2cncc(Oc3ccc4nc(N[C@@H]5CCCC[C@H]5O)sc4c3)n2)cn1` [Compound 93, (1R,2R)-2-(6-(6-(1-methyl-1H-pyrazol-4-yl)pyrazin-2-yloxy)benzo[d]thiazol-2-ylamino)cyclohexanol], the inhibition at 1 µM in test [1] amounted to 100%; at cKIT it was 18%; on PDGFRb, 22%; in test [2], 82%; in test [3], 95%.
On to `CCCn1cc(-c2cncc(Oc3ccc4nc(N[C@@H]5CCCC[C@H]5O)sc4c3)n2)cn1` [Compound 94, (1R,2R)-2-(6-(6-(1-propyl-1H-pyrazol-4-yl)pyrazin-2-yloxy)benzo[d]thiazol-2-ylamino)cyclohexanol], for which the inhibition at 1 µM turned out to be 100% in test [1]; 13% at cKIT; 9% on PDGFRb; 80% in test [2]; 95% in test [3].
Consider `Nc1ccc(-c2cncc(Oc3ccc4nc(N[C@@H]5CCCC[C@H]5O)sc4c3)n2)cn1` [Compound 97, (1R,2R)-2-(6-(6-(6-aminopyridin-3-yl)pyrazin-2-yloxy)benzo[d]thiazol-2-ylamino)cyclohexanol], for which the inhibition at 1 µM was determined as 100% in test [1]; 24% at cKIT; 19% on PDGFRb; 62% in test [2]; 91% in test [3].
For `CN1CCN(c2ccc(-c3cncc(Oc4ccc5nc(N[C@@H]6CCCC[C@H]6O)sc5c4)n3)cn2)CC1` [Compound 98, (1R,2R)-2-(6-(6-(6-(4-methylpiperazin-1-yl)pyridin-3-yl)pyrazin-2-yloxy)benzo[d]thiazol-2-ylamino)cyclohexanol], the inhibition at 1 µM in test [1] amounted to 100%; at cKIT it was 15%; at PDGFRb, 12%; in test [2], 100%; in test [3], 98%.
Turning to `CN1CCN(c2ccc(-c3cc(Oc4ccc5nc(N[C@@H]6CCCC[C@H]6O)sc5c4)cnc3-c3ccc(N4CCN(C)CC4)nc3)cn2)CC1` [Compound 107, (1R,2R)-2-(6-(5,6-bis(6-(4-methylpiperazin-1-yl)-pyridin-3-yl)pyridin-3-yloxy)benzo[d]thiazol-2-ylamino)cyclohexanol], the inhibition at 1 µM is 100% in test [1]; 16% at cKIT; 26% on PDGFRb; 100% in test [2]; 86% in test [3].

As usually defined, the inhibition is the share of the control response that was lost under treatment.
